How the values were obtained:
GSK3B (GSK3 beta) = GSK3B (GSK3 beta) (Homo sapiens, UniProt P49841); assay: SelectScreen kinase profiling, ZLYTE; format: biochemical
NEK9 = NEK9 (Homo sapiens, UniProt Q8TD19); assay: SelectScreen kinase profiling, ZLYTE; format: biochemical; conditions: NEK9, 10 µM
CDKL5 = CDKL5 (Homo sapiens, UniProt O76039); assay: SelectScreen kinase profiling, ZLYTE; format: biochemical; conditions: CDKL5, 10 µM
EPHA5 = EPHA5 (Homo sapiens, UniProt P54756); assay: SelectScreen kinase profiling, ZLYTE; format: biochemical; conditions: EPHA5, 10 µM
RT and MB cells = assay: Cell cycle analysis (PI flow cytometry); format: cell-based; conditions: 2µM
Experimental: Cell cycle analysis was performed by flow cytometry of cells stained with Propidium Iodide (PI) (Thermo Fisher Scientific, Carlsbad, CA, USA) according to manufacturer’s instructions. Cells treated with the top PLK4i candidates and 0.1% DMSO (control) were fixed in 80% ethanol overnight, stained with PI, and then subjected to flow cytometric analysis using a BD Fortessa instrument (BD Biosciences, San Jose, CA, USA). Data was analyzed using Modfit LT from Verity Software House (Topsham, ME, USA). All experiments were performed in triplicate.

NUAK2 = NUAK2 (Homo sapiens, UniProt Q9H093); assay: SelectScreen kinase profiling, LanthaScreen binding; conditions: NUAK2, 10 µM
PRKCZ (PKC zeta) = PRKCZ (PKC zeta) (Homo sapiens, UniProt Q05513); assay: SelectScreen kinase profiling, ZLYTE; format: biochemical
[1] = biological target: PIK3CA E542K/PIK3R1 (p110 alpha E542K/p85 alpha) (Homo sapiens, UniProt P42336, E542K); assay: SelectScreen kinase profiling, Adapta; format: biochemical; conditions: PIK3CA E542K/PIK3R1, 10 µM
MYLK (MLCK) = MYLK (MLCK) (Homo sapiens, UniProt Q15746); assay: SelectScreen kinase profiling, LanthaScreen binding
MAP3K10 (MLK2) = MAP3K10 (MLK2) (Homo sapiens, UniProt Q02779); assay: as above
ABL1 T315I = ABL1 T315I (Homo sapiens, UniProt P00519, T315I); assay: SelectScreen kinase profiling, ZLYTE; format: biochemical
MAP4K3 (GLK) = MAP4K3 (GLK) (Homo sapiens, UniProt Q8IVH8); assay: SelectScreen kinase profiling, LanthaScreen binding
CAMK2G (CaMKII gamma) = CAMK2G (CaMKII gamma) (Homo sapiens, UniProt Q13555); assay: as above
Chain of CAMK2G (CaMKII gamma) (Q13555 whole entry): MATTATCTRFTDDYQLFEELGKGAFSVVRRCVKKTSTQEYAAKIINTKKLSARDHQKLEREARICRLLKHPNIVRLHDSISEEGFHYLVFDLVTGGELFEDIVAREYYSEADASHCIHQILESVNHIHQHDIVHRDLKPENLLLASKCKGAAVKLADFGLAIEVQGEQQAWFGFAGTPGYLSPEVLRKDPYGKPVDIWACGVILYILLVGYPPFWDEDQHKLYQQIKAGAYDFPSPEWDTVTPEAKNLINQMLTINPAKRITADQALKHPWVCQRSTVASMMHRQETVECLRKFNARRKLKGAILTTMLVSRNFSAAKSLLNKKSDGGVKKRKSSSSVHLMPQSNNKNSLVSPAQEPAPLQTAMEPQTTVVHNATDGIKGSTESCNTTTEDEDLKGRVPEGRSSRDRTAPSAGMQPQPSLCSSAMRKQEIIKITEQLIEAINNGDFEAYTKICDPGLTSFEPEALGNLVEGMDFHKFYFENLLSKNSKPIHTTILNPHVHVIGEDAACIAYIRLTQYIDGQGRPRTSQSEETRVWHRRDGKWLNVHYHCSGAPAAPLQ

Chain of GSK3B (GSK3 beta) (P49841 whole entry): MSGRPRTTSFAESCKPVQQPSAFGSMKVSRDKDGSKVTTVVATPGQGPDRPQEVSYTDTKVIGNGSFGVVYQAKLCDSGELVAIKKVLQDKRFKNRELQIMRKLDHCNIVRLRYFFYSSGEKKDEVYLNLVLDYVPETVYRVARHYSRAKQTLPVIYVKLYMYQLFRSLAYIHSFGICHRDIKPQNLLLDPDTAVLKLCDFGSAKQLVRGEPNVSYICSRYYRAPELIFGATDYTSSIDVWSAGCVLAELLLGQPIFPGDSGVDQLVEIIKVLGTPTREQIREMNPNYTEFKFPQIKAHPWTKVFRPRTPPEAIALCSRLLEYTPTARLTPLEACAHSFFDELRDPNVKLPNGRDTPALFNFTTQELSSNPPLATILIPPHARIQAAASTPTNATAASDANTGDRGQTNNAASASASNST
Chain of NEK9 (Q8TD19 whole entry): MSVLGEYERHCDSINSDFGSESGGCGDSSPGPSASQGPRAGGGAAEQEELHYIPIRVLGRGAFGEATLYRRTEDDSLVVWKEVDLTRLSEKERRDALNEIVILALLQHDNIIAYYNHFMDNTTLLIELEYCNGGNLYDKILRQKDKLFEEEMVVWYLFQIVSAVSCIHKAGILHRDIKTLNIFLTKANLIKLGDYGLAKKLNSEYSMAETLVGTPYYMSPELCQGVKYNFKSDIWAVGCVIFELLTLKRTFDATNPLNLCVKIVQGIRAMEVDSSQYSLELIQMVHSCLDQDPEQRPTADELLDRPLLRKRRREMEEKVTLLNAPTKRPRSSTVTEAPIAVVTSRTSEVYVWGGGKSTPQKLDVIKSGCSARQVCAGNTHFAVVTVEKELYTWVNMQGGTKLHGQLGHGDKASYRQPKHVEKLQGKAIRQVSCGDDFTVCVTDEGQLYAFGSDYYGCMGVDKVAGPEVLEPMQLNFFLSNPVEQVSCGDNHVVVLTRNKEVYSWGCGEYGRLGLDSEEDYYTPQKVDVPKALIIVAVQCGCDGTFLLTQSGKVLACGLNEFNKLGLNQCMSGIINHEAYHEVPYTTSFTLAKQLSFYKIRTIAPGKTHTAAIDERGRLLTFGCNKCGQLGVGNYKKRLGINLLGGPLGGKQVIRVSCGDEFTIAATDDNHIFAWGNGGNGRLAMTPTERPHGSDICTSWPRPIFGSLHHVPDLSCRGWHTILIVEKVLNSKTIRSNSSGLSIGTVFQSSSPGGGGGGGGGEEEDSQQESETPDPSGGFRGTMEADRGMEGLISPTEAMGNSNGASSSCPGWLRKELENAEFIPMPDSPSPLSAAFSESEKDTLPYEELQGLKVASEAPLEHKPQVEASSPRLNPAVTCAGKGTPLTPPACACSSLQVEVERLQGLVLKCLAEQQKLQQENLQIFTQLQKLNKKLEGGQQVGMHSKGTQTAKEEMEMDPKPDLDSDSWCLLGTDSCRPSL
Chain of MAP3K10 (MLK2) (Q02779 whole entry): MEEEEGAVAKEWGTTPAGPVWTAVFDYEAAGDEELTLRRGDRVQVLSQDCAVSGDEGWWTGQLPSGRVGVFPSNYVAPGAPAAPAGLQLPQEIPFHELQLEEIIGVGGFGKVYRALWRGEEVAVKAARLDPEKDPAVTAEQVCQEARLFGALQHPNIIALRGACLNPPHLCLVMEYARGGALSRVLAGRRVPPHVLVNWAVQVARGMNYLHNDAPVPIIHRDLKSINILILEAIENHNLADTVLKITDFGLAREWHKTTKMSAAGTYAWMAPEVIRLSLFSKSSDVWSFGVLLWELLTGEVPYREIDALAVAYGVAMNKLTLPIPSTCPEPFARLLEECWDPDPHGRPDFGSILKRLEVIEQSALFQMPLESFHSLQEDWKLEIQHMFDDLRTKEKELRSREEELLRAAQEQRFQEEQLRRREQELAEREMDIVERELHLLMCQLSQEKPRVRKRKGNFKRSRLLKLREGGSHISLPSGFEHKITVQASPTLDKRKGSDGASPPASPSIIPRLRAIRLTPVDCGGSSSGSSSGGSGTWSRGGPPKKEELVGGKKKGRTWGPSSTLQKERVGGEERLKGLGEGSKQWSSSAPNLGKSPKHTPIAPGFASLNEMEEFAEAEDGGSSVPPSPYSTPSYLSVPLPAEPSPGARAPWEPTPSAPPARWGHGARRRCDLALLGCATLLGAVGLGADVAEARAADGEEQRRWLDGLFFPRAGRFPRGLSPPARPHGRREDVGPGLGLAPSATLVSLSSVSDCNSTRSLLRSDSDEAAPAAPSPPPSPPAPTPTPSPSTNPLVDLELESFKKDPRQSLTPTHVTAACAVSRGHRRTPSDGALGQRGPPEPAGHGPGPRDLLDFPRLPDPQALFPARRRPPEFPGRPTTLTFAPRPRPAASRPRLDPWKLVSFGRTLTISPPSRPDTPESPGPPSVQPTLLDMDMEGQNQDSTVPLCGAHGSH
Chain of PRKCZ (PKC zeta) (Q05513 whole entry): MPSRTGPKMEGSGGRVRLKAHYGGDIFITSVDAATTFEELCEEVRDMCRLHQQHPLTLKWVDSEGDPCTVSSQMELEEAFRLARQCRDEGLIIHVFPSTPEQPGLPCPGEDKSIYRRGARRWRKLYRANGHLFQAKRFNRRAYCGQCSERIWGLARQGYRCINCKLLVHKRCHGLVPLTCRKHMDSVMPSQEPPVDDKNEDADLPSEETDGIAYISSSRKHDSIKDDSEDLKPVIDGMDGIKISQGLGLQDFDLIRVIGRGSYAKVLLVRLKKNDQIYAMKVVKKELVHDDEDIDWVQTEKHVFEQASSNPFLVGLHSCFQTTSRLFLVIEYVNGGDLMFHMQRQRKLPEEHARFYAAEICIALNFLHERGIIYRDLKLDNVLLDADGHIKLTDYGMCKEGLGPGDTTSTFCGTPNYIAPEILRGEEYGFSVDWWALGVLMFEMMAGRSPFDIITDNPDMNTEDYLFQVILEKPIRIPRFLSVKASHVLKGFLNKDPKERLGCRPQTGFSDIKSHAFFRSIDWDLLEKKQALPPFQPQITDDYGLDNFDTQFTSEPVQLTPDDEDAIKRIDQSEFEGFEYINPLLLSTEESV
Chain of EPHA5 (P54756 25-1037): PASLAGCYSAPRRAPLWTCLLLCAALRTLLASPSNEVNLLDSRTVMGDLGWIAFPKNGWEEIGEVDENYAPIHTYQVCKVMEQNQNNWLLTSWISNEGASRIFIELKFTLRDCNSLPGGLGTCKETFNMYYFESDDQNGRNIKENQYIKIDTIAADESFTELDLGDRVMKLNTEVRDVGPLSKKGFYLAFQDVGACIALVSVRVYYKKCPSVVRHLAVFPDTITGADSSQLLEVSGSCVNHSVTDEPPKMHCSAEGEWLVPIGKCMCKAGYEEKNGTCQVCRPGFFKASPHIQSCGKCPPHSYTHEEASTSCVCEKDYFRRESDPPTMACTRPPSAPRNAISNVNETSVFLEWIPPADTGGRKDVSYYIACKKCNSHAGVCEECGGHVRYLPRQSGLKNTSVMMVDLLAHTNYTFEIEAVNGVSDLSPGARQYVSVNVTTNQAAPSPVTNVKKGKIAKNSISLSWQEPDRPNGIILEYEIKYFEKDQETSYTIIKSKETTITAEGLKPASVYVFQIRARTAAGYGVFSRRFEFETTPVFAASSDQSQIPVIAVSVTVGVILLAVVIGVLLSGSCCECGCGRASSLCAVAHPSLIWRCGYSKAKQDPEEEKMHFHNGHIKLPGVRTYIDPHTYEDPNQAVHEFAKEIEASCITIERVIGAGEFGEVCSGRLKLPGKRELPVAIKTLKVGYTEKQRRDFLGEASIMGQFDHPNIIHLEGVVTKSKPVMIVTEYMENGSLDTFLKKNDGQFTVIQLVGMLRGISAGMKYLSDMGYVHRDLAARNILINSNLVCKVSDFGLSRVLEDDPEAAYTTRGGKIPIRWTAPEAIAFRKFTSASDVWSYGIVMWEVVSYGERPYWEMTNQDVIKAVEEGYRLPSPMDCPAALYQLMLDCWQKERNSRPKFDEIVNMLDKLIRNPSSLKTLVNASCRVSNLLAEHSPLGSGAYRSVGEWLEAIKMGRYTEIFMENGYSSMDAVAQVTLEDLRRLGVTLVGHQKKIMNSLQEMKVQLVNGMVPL

O=C(c1ccc(/C=C/c2n[nH]c3ccccc23)cc1)N1CCNCC1 [KW-2449]
inhibition at 10 µM (GSK3B (GSK3 beta)): 66%
inhibition at 10 µM (NEK9): 70%
inhibition at 10 µM (CDKL5): 56%
inhibition at 10 µM (EPHA5): 84%
polyploidy (cell cycle analysis) (RT and MB cells): induction of polyploidy with 2µM KW-2449 in all cell lines except DAOY
inhibition at 10 µM (NUAK2): 62%
inhibition at 10 µM (PRKCZ (PKC zeta)): 9%
inhibition at 10 µM [1]: 13%
inhibition at 10 µM (MYLK (MLCK)): 80%
inhibition at 10 µM (MAP3K10 (MLK2)): 87%
inhibition at 10 µM (ABL1 T315I): 101%
inhibition at 10 µM (MAP4K3 (GLK)): 72%
inhibition at 10 µM (CAMK2G (CaMKII gamma)): -110%
